Assay results taken from patent US8648195B2, “Stabilized crystal of 2-ethyl-3,7-dimethyl-6-(4-(trifluoromethoxy)phenoxy)quinoline-4-yl methyl carbonate, process for producing the crystal, and agricultural chemical composition comprising the crystal” (priority 2010, dated 2014).

Experiments:
[1] = system: Lepidoptera, Hemiptera, Coleoptera, Acari, Hymenoptera, Orthoptera, Diptera, and Order Thysanoptera; details: patent documents 5 and 6; cited from earlier work
[2] = Storage test of aqueous suspension formulations (54° C., 2 weeks): particle size and properties; format: physicochemical; details: conclusion from storage test
Description: The aqueous suspension formulations of Example 2 and Comparative Example 1 were stored at 54° C. for 2 weeks, and a change in quality between before and after the storage was observed. The size of crystals before and after the storage test was measured with a laser diffraction particle size distribution measuring apparatus and under an optical microscope. [Measurement with Laser Diffraction Particle Size Distribution Measuring Apparatus] Apparatus used: Laser diffraction particle size distribution measuring apparatus SALD-2200 manufactured by Shimadzu Corp The floable formulation diluted with water after the storage test was used for the measurement of particle size with the above measuring apparatus. The A crystal form after the storage could not be suspended in water, and, thus, instead of the suspension, before use in test, was exposed to ultrasonic waves until coarse particle nuclei disappeared. [Measurement Under Optical Microscope] Apparatus used: Digital microscope VHX-200 manufactured by Keyence Corp. Images of the water-diluted floable formulations after the storage test were taken with the apparatus (magnification: 1500 times). The major axes of crystals in the images were measured, and the average was calculated. […]

Physicochemical and storage stability of the crystal form [2] | Structure (SMILES) | Insecticidal activity [1]
 | CCc1nc2cc(C)c(Oc3ccc(OC(F)(F)F)cc3)cc2c(OC(=O)OC)c1C [Compound I, 2-Ethyl-3,7-dimethyl-6-(4-(trifluoromethoxy)phenoxy)-quinoline-4-yl methyl carbonate] | high insecticidal activity
high storage stability | CCc1nc2cc(C)c(Oc3ccc(OC(F)(F)F)cc3)cc2c(OC(=O)OC)c1C [Example 1, 2-ethyl-3,7-dimethyl-6-(4-(trifluoromethoxy)phenoxy)quinoline-4-yl methyl carbonate] | 
